Literature values in PMC2931793 (Journal of neuroscience methods, 2008).

System: IDE
Conditions: ref Song et al., 2001

Substance	Vmax of IDE-mediated cleavage
Abz-GGFLRKGVQ-EDDnp	~ 0.2 μmol min^−1 mg^−1
β-endorphin	2.6 µmol/min/mg
